According to publication PMC9699089 (Pathogens, 2022):

Experiments:
[1] = test system: Plasmodium falciparum CQ-resistant strain W2; assay: In vitro antiplasmodial activity, SYBR Green I fluorescence-based method, strain W2; type: cell-based; details: CQ-resistant strain W2, 48 h incubation, mean of three independent experiments, read-out: P. falciparum Strains IC50 Values W2
How it was run: (§1)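 P. falciparum cultured in human erythrocytes in RPMI with 0.5% Albumax I, hypoxanthine and gentamicin at 37 °C in a candle jar. Compounds tested from 39 nM to 40 µM for 48 h. Parasite DNA quantified by SYBR Green I fluorescence in saponin/Triton lysis buffer (ex 485/em 535 nm).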

[2] = test system: Plasmodium falciparum CQ-sensitive strain 3D7; assay: In vitro antiplasmodial activity, SYBR Green I fluorescence-based method, strain 3D7; type: cell-based; details: CQ-sensitive strain 3D7, 48 h incubation, mean of three independent experiments, read-out: P. falciparum Strains IC50 Values 3D7
How it was run: as §1

SMILES	IC50 [1]	IC50 [2]
c1ccc(-c2cc(CNCCc3ccccn3)nc3c2ccc2c(-c4ccccc4)cc(CNCCc4ccccn4)nc23)cc1 [Compound 1m]	70 ± 10 nM	470 ± 120 nM
CN(C)CCCCCNCc1cc(-c2ccccc2)c2ccc3c(-c4ccccc4)cc(CNCCCCCN(C)C)nc3c2n1 [Compound 1d, 2,9-Bis[(5-dimethylaminopentyl)aminomethyl]-4,7-diphenyl-1,10-phenanthroline]	3510 ± 520 nM	4790 ± 500 nM
CN(C)CCCCNCc1cc(-c2ccccc2)c2ccc3c(-c4ccccc4)cc(CNCCCCN(C)C)nc3c2n1 [Compound 1c, 2,9-Bis[(4-dimethylaminobutyl)aminomethyl]-4,7-diphenyl-1,10-phenanthroline]	30 ± 3 nM	10300 ± 2130 nM
c1ccc(-c2cc(CNCCCN3CCCC3)nc3c2ccc2c(-c4ccccc4)cc(CNCCCN4CCCC4)nc23)cc1 [Compound 1l]	30 ± 10 nM	9910 ± 1730 nM
